In patent US10562912B2 (C&C Research Laboratories, priority 2013, dated 2020):

How the values were obtained:
Type in all cases: cell-based
LNCaP = experiment: Cell growth inhibition assay, prostate cancer cell line LNCaP (medium with 10 ng/mL IL-6); settings: Homo sapiens, medium supplemented with 10 ng/mL of IL-6, 10,000 cells/well
AGS = experiment: Cell growth inhibition assay, stomach cancer cell line AGS; settings: Homo sapiens; AGS stomach cancer cell line, 3,000 cells/well
Method: The inhibitory effects of the compounds of the present invention against the growth of cancer cells were evaluated as shown below. The cancer cell lines including stomach cancer cell line (AGS), breast cancer cell lines (MDA-MB-231, MDA-MB-468, and BT-549), prostate cancer cell lines (LNCaP and DU-145), colon cancer cell line (HCT116), ovarian cancer cell line (SW626), liver cancer cell line (Hep3B), kidney cancer cell line (ACHN), lung cancer cell line (NCI-H23) and blood cancer cell lines (HEL92.1.7 and U266) were cultured under the protocol provided by each supplier. A medium supplemented with 10 ng/mL of IL-6 was used for LNCaP, a prostate cancer cell line, when treated with a drug. Each type of cells to be used in experiments were sub-cultured in a 96-well plate by counting the exact number of cells using Tali™ Image-based Cytometer (Life Technologies). In a 96-well plate, AGS, HCT116, and DU-145 were employed with 3,000 cells/well; NCI-H23, SW626, Hep3B, ACHN, BT-549, MDA-MB-231, HEL92.1.7, and U266 were employed with 5,000 cells/well; and LNCaP and MDA-MB-468 were employed with 10,000 cells/well. The cells were treated with the compounds listed in Examples which were diluted in various concentrations. Upon completion of the compounds treatment, AGS, HCT116, SW626, DU145, NCI-H23, Hep3B, ACHN, BT-549, LNCaP, HEL92.1.7, and U266 cells were cultured at 37° C. under 5% CO2 for from 72 to 96 hours, and MDA-MB-231 and MDA-MB-468 cells were cultured at 37° C. in air for from 72 to 96 hours. Subsequently, the cells were observed under microscope and drug precipitation and particular findings were investigated and recorded. And then, the 96-well plate was placed at room temperature for 30 minutes, added with 20 μL/well of CellTiter-Glo solution (Cat No. G7573, Promega) and shaken for 10 minutes, followed by being subjected to the measurement using PHERAstar™ microplate reader (BMG LABTECH) according to the supplier's general luminometer protocol. Wells where only culture liquid added without cell plating were used as a negative control, whereas wells where culture liquid containing 0.1% DMSO instead of the compounds listed in Examples were used as a positive control.

STAT3 = target: T1, STAT3 (Homo sapiens, UniProt P40763); experiment: STAT3 reporter gene assay (luciferase), LNCaP stable cell line (pSTAT3-TA-luc), IL-6 stimulation
T1 construct: plasmid pSTAT3-TA-luc), which contains a stably operating STAT3 promoter; endogenous in cells
Procedure, shortened: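 LNCaP cells stably carrying pSTAT3-TA-luc, in RPMI1640 with 3% DCC-FBS, were treated with compound and then stimulated with 10 ng/mL IL-6 for 24–48 h at 37 °C. Luciferase activity was measured in lysates. A parallel plate measured viability by CellTiter-Glo, with stimulated 0.1% DMSO wells as the positive control.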

T1 sequence (P40763 whole entry): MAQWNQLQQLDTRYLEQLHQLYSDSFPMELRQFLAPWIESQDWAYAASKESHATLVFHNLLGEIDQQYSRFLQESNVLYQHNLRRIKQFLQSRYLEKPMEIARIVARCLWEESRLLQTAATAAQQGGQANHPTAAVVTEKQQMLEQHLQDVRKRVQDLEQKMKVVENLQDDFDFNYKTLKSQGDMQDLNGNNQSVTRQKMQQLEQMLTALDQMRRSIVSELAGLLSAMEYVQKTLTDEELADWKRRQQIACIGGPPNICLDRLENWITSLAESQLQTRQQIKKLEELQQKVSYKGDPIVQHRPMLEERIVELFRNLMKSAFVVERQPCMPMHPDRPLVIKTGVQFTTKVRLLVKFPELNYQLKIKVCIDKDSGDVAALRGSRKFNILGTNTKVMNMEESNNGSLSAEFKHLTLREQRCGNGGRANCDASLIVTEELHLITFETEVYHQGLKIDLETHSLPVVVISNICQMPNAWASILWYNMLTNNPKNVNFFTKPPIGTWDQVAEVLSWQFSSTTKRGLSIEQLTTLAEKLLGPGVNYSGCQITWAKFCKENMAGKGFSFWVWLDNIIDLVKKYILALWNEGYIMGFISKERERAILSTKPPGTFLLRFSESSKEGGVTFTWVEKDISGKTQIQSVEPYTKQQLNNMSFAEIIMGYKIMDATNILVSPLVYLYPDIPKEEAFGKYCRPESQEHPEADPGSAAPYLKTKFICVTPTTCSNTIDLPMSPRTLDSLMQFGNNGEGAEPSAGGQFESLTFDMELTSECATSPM

IC50 (LNCaP) | IC50 (AGS) | IC50 (STAT3) | Structure (SMILES)
3.5 µM | 16.1 µM | 2.6 µM | CS(=O)(=O)Nc1ccc2cc(C(=O)Nc3cccc(-c4cnc(Cl)cc4C(F)(F)F)c3)[nH]c2c1 [Example 294, N-(3-(6-chloro-4-(trifluoromethyl)pyridin-3-yl)phenyl)-6-(methylsulfonamido)-1H-indole-2-carboxamide]
3.5 µM | 6.9 µM | 1.6 µM | CN(c1ccc2cc(C(=O)Nc3cccc(-c4ccc(F)cc4F)c3)n(C)c2c1)S(C)(=O)=O [Example 345, N-(2′,4′-difluoro-[1,1′-biphenyl]-3-yl)-1-methyl-6-(N-methylmethylsulfonamido)-1H-indole-2-carboxamide]
8.1 µM | 13.9 µM | 3.2 µM | CS(=O)(=O)Nc1ccc2cc(C(=O)Nc3cccc(-c4cnccc4C(F)(F)F)c3)[nH]c2c1 [Example 291, 6-(methylsulfonamido)-N-(3-(4-(trifluoromethyl)pyridin-3-yl)phenyl)-1H-indole-2-carboxamide]
3 µM | 25.9 µM | 2.6 µM | CS(=O)(=O)Nc1ccc2cc(C(=O)Nc3cc(C#N)cc(-c4ccc(F)cc4C(F)(F)F)c3)[nH]c2c1 [Example 315, N-(5-cyano-4′-fluoro-2′-(trifluoromethyl)-[1,1′-biphenyl]-3-yl)-6-(methylsulfonamido)-1H-indole-2-carboxamide]
> 10 µM | 22 µM | 3.4 µM | CS(=O)(=O)Nc1ccc2cc(C(=O)Nc3cccc(S(=O)(=O)c4cccc(CC#N)c4)c3)[nH]c2c1 [Example 412, N-(3-((3-(cyanomethyl)phenyl)sulfonyl)phenyl)-6-(methylsulfonamido)-1H-indole-2-carboxamide]
> 10 µM | 26.3 µM | 4.3 µM | CS(=O)(=O)Nc1ccc2cc(C(=O)Nc3cccc(-c4ccc(N)cc4C(F)(F)F)c3)[nH]c2c1 [Example 385, N-(4′-amino-2′-(trifluoromethyl)-[1,1′-biphenyl]-3-yl)-6-(methylsulfonamido)-1H-indole-2-carboxamide]
8.6 µM | 21.6 µM | > 10 µM | COc1ccc(F)c(-c2ccnc(NC(=O)c3cc4ccc([N+](=O)[O-])cc4[nH]3)c2)c1 [Example 297, N-(4-(2-fluoro-5-methoxyphenyl)pyridin-2-yl)-6-nitro-1H-indole-2-carboxamide]
> 10 µM | 41.4 µM | > 10 µM | Cc1c(C(=O)Nc2cccc(-c3ccccc3C(F)(F)F)c2)[nH]c2ccc([N+](=O)[O-])cc12 [Example 228, 3-methyl-5-nitro-N-(2′-(trifluoromethyl)-[1,1′-biphenyl]-3-yl)-1H-indole-2-carboxamide]
> 10 µM | 6.9 µM | 6.3 µM | O=C(Nc1cccc(-c2ccccc2C(F)(F)F)c1)c1cc2ccc([N+](=O)[O-])cc2[nH]1 [Example 226, 6-nitro-N-(2′-(trifluoromethyl)-[1,1′-biphenyl]-3-yl)-1H-indole-2-carboxamide]
2.7 µM | 2.7 µM | 1.7 µM | CN(C(=O)c1cc2ccc(NS(C)(=O)=O)cc2[nH]1)c1cccc(-c2ccc(F)cc2F)c1 [Example 280, N-(2′,4′-difluoro-[1,1′-biphenyl]-3-yl)-N-methyl-6-(methylsulfonamido)-1H-indole-2-carboxamide]
> 10 µM | 31.3 µM | 3.1 µM | Cc1nc2ccc(S(=O)(=O)c3cccc(NC(=O)c4cc5ccc(NS(C)(=O)=O)cc5[nH]4)c3)cc2s1 [Example 410, N-(3-((2-methylbenzo[d]thiazol-6-yl)sulfonyl)phenyl)-6-(methylsulfonamido)-1H-indole-2-carboxamide]
> 10 µM | 17.3 µM | 2.9 µM | CS(=O)(=O)Nc1ccc2cc(C(=O)Nc3cccc(S(=O)(=O)c4ccc5sccc5c4)c3)[nH]c2c1 [Example 409, N-(3-(benzo[b]thiophen-5-ylsulfonyl)phenyl)-6-(methylsulfonamido)-1H-indole-2-carboxamide]
5.2 µM | 16.3 µM | 2.7 µM | Nc1ccc2[nH]c(C(=O)Nc3cccc(-c4ccccc4C(F)(F)F)c3)cc2c1 [Example 258, 5-amino-N-(2′-(trifluoromethyl)-[1,1′-biphenyl]-3-yl)-1H-indole-2-carboxamide]
1.3 µM | 11.9 µM | 3.1 µM | CN(C)S(=O)(=O)Nc1ccc2cc(C(=O)Nc3cccc(-c4ccc(F)cc4F)c3)[nH]c2c1 [Example 276, N-(2′,4′-difluoro-[1,1′-biphenyl]-3-yl)-6-((N,N-dimethylsulfamoyl)amino)-1H-indole-2-carboxamide]
9.1 µM | 20.3 µM | 5.8 µM | CS(=O)(=O)Nc1ccc2cc(C(=O)Nc3cccc(C(F)(F)c4ccccn4)c3)[nH]c2c1 [Example 389, N-(3-(difluoro(pyridin-2-yl)methyl)phenyl)-6-(methylsulfonamido)-1H-indole-2-carboxamide]
> 10 µM | 27.1 µM | > 10 µM | O=C(Nc1cccc(-c2ccccc2C(F)(F)F)c1)c1cc2ccc(NS(=O)(=O)C(F)(F)F)cc2[nH]1 [Example 268, N-(2′-(trifluoromethyl)-[1,1′-biphenyl]-3-yl)-6-(trifluoromethylsulfonamido)-1H-indole-2-carboxamide]
> 10 µM | 31.7 µM | > 10 µM | COC(=O)c1ccc(Cl)c(-c2cccc(NC(=O)c3cc4ccc([N+](=O)[O-])cc4[nH]3)c2)c1 [Example 298, methyl 6-chloro-3′-(6-nitro-1H-indole-2-carboxamido)-[1,1′-biphenyl]-3-carboxylate]
8.5 µM | 7.6 µM | 4.7 µM | Cn1c(C(=O)Nc2cccc(-c3ccccc3C(F)(F)F)c2)cc2ccc(NS(C)(=O)=O)cc21 [Example 253, 1-methyl-6-(methylsulfonamido)-N-(2′-(trifluoromethyl)-[1,1′-biphenyl]-3-yl)-1H-indole-2-carboxamide]
2.8 µM | 5.8 µM | 1.8 µM | CN(c1ccc2cc(C(=O)Nc3cccc(-c4ccccc4C(F)(F)F)c3)n(C)c2c1)S(C)(=O)=O [Example 343, 1-methyl-6-(N-methylmethylsulfonamido)-N-(2′-(trifluoromethyl)-[1,1′-biphenyl]-3-yl)-1H-indole-2-carboxamide]
> 10 µM | 32 µM | > 10 µM | COC(=O)c1cc(-c2cccc(NC(=O)c3cc4ccc(NS(C)(=O)=O)cc4[nH]3)c2)c(C(F)(F)F)cc1OC [Example 289, methyl 4-methoxy-3′-(6-(methylsulfonamido)-1H-indole-2-carboxamido)-6-(trifluoromethyl)-[1,1′-biphenyl]-3-carboxylate]
3.2 µM | 9.2 µM | 2 µM | CN(C)S(=O)(=O)Nc1ccc2cc(C(=O)Nc3cccc(-c4ccccc4C(F)(F)F)c3)[nH]c2c1 [Example 267, 6-((N,N-dimethylsulfamoyl)amino)-N-(2′-(trifluoromethyl)-[1,1′-biphenyl]-3-yl)-1H-indole-2-carboxamide]
> 10 µM | 30.6 µM | > 10 µM | O=C(Nc1cccc(-c2ccc(F)cc2C(F)(F)F)c1)c1cc2ccc([N+](=O)[O-])cc2[nH]1 [Example 244, N-(4′-fluoro-2′-(trifluoromethyl)-[1,1′-biphenyl]-3-yl)-6-nitro-1H-indole-2-carboxamide]
8.6 µM | 14.6 µM | 2.4 µM | CS(=O)(=O)Nc1ccc2cc(C(=O)Nc3cccc(S(=O)(=O)c4cccc(Cl)c4)c3)[nH]c2c1 [Example 405, N-(3-((3-chlorophenyl)sulfonyl)phenyl)-6-(methylsulfonamido)-1H-indole-2-carboxamide]

Structure (SMILES) | IC50 (LNCaP) | IC50 (AGS) | IC50 (STAT3)
CC(C)COc1cc(NC(=O)c2cc3ccc(NS(C)(=O)=O)cc3[nH]2)cc(C(F)(F)c2cccc(C#N)c2)c1 [Example 392, N-(3-((3-cyanophenyl)difluoromethyl)-5-isobutoxyphenyl)-6-(methylsulfonamido)-1H-indole-2-carboxamide] | 8.3 µM | 9 µM | 1.8 µM
